From patent publication US20220332750A1, “ADENOSINE COMPOUND, ITS PHARMACEUTICALLY ACCEPTABLE SALT OR ITS STEREOISOMER AND USE THEREOF” (ACADEMY OF MILITARY MEDICAL SCIENCES, priority 2019, published 2022)

Assays:
[1] = target: T1, (human) A2A adenosine receptor (Homo sapiens, UniProt P29274); experiment: Radioligand binding test ([3H]-CGS21680 displacement); conditions: for Ki: calculated from IC50 by Cheng-Prusoff equation, [S] 25 nM, Km 22 nM; for IC50: hA2A HEK-293 cell membrane, [3H]-CGS21680 25 nM, 25° C. 90 minutes
T1 construct: purchased PerkinElmer Research Products (Boston, Mass.); host or cells: HEK-293 cell membranes, stably transfected
T1 sequence (P29274 whole entry): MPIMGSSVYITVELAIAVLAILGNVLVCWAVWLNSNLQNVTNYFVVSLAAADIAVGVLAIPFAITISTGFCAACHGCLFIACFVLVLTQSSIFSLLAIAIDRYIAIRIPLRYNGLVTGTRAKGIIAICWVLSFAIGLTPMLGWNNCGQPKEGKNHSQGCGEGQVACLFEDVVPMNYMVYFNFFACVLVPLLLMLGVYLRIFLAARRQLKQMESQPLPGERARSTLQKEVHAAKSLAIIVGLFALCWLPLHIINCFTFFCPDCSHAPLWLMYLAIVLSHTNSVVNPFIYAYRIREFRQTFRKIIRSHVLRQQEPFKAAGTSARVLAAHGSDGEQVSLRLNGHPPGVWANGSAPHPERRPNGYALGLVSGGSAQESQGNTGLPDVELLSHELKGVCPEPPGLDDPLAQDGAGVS
Experimental: [3H]-CGS21680 (2-[p-(2-carboxyethyl)phenylethylamino]-5′-N-ethylcarboxamido-adenosine, [carboxy-1-ethyl-3H(N)]—; 250 μCi): purchased from PerkinElmer Research Products (Boston, Mass.);
The cell membrane stably transfected with (human) A2A adenosine receptor was prepared in HEK-293 cells, and the cell membrane was obtained from PerkinElmer Research Products (Boston, Mass.);
CGS 21680 (2-[p-(2-carboxyethyl)phenylethylamino]-5′-N-ethylcarboxamidoadenosine) was purchased from Selleck (Shanghai, CN);
The A2A adenosine receptors used were all expressed in the cell membrane. Each compound was continuously diluted 3 times with DMSO (Solarbio, D8371-250 ml) to generate compound source plates with 10 different concentrations (10 μM, 3.3 μM, 1.1 μM, 0.37 μM, 0.12 μM, 0.0412 μM, 0.0137 μM, 0.0046 μM, 0.0015 μM, 0.0005 μM), 250 nL of compounds were added to 384-well Opti-plate, sealed with parafilm; 1 mL of assay buffer (containing 50 mM Tris-HCl, pH 7.4, 10 mM MgCl2, 1 mM EDTA, 1 μg/mL adenosine deaminase) was added to 20 U hA2A HEK-293 cell membrane for dilution, 0.75 μCi [3H]-CGS21680 (final 25 nM) was added to the diluted cell membrane and mixed well; 50 μL of the prepared cell membrane dilution was transferred to the 384-well Opti-plate containing fresh compounds and incubated at 25° C. for 90 minutes; 100 μL of 0.5% polyethyleneimine solution (PEI) was added to UNIFILTER-96 GF/B filter plate, and soaked at 4° C. for 90 minutes, then the UNIFILTER-96 GF/B filter plate was washed twice with 500 μL of washing buffer per well (washing buffer contained 50 mM Tris-HCl pH 7.4, 154 mM NaCl) which was transferred by Cell Harvester; then, the mixture system in the Opti-plate was transferred to the cleaned UNIFILTER-96 GF/B filter plate, and then the UNIFILTER-96 GF/B filter plate was washed 9 times with 500 μL of washing buffer per well (washing buffer contained 50 mM Tris-HCl, pH 7.4, 154 mM NaCl), and incubated for 3 minutes in a 37° C. incubator; 40 μL of ULTIMA GOLD scintillation fluid (Perkin Elmer, Cat #77-16061) was added to each well, MicroBeta liquid scintillation counter (PerkinElmer) was used to read CPM (count per minute) value. The specific binding percentage of [3H]CGS21680 was calculated according to the CPM value, % specific binding of [3H]CGS21680=(CPMsample−CPMLow Control)/(CPMHigh Control−CPMLow Control)*100, wherein High Control was 0.5% DMSO, Low Control was 100 μM CGS21680. According to the compound concentration and the specific binding percentage of [3H]CGS21680, curve fitting was performed to calculate IC50 value.
The binding inhibition constant (Ki) value was calculated from the IC50 value according to the Cheng-Prusoff equation, Ki=IC50/(1+[S]/Km), wherein [S] was radioligand concentration (25 nM), and Km was human A2AAR dissociation constant of [3H]CGS21680 (22 nM).

[2] = target: human adenosine receptor A2A (hADORA2A-HEK293 cells) (Homo sapiens, UniProt P29274); experiment: cAMP test of A2A adenosine receptor; type: cell-based; conditions: LANCE Ultra cAMP kit
Chain of human adenosine receptor A2A (hADORA2A-HEK293 cells) (P29274 whole entry): as above
Excerpt: DMEM/F12, G418, Penicillin-Streptomycin, Versene solution, HEPES, Hank's buffer saline aqueous solution, PBS (pH 7.4, 1×, sterile), FBS, 7.5% BSA stabilizer, Rolipram, NECA, were purchased from Gibico, Hyclone and Sigma, respectively;
LANCE® Ultra cAMP kit (containing Eu-cAMP tracer, Ulight-anti-cAMP reagent, cAMP detection buffer) and hADORA2A-HEK293 cells were purchased from PerkinElmer Research Products (Boston, Mass.);
The cells stably expressing human adenosine receptor A2A (hADORA2A-HEK293 cells) were cultured in DMEM/F12 medium containing 10% FBS, 1× Penicillin-Streptomycin and 400 μg/ml G418 in the environment of 37° C. and 5% CO2. Before the experiment, the cells were digested with Versene solution. […] EnVison microplate reader (EnVision multimode plate reader, PerkinElmer) was used to determine the level of cyclic adenosine monophosphate in the final solution (λex=320 nm, λem=665 nm & 615 nm). The EC50 (nM) value that stimulated the production level of cyclic adenosine monophosphate when the test compound interacted with the A2A adenosine receptor was calculated. The A2A receptor agonist titer of the compound was expressed as the EC50 (nM) value that stimulated the production level of cyclic adenosine monophosphate when the compound interacted with the A2A adenosine receptor. […]

Ki [1] | IC50 [1] | melting point | EC50 [2] | SMILES
0.778 µM | 1.66 µM | 230 °C |  | Nc1nc(-c2ccc(NC(=O)Nc3cccnc3)cc2)nc2c1ncn2[C@@H]1O[C@H](CO)[C@@H](O)[C@H]1O [Compound 1, 1-{4-{6-amino-9-[(2R,3R,4S,5R)-3,4-dihydroxy-5-(hydroxymethyl)tetrahydrofuran-2-yl]-9H-purin-2-yl}phenyl}-3-(pyridin-3-yl)urea]
0.0164 µM | 0.035 µM | 174 °C | 0.228 µM | Nc1nc(-c2ccc(NC(=O)Nc3ccc(CO)cc3)cc2)nc2c1ncn2[C@@H]1O[C@H](CO)[C@@H](O)[C@H]1O [Compound 2, 1-{4-{6-amino-9-[(2R,3R,4S,5R)-3,4-dihydroxy-5-(hydroxymethyl)tetrahydrofuran-2-yl]-9H-purin-2-yl}phenyl}-3-[4-(hydroxymethyl)phenyl]urea]
0.0159 µM | 0.034 µM | 174 °C |  | Nc1nc(-c2ccc(NC(=O)NC3CC3)cc2)nc2c1ncn2[C@@H]1O[C@H](CO)[C@@H](O)[C@H]1O [Compound 3, 1-{4-{6-amino-9-[(2R,3R,4S,5R)-3,4-dihydroxy-5-(hydroxymethyl)tetrahydrofuran-2-yl]-9H-purin-2-yl}phenyl}-3-cyclopropylurea]
